Measurements: patent US20250236838A1, “E. COLI NISSLE STRAIN WITH IMPROVED TRANSFORMATION EFFICIENCY” (priority 2024, published 2025)
Several values for one entry are separate records, joined by “and”; a condition that tells them apart may be missing. Equal entries are not always repeated.

Test: Hydrophobicity, dodecane partitioning assay
Type: physicochemical, E. coli Nissle
Protocol: Hydrophobicity was measured using a standard partitioning assay. Fresh cultures of both strains were grown till log phase (OD600=0.7). The OD was found using Thermo Fischer's NanoDrop^C. The OD546 of the cell (OD1) was adjusted to 0.3 using 10 mM CaCO3 solution. 4 ml of the cell suspension was transferred to individual test tubes having 1 ml of dodecane and vortexed at 2500 rpm for 10 minutes to homogenize the phases. The phases were allowed to separate for 15 minutes. The OD546 of the aqueous phase (OD2) was measured.
The mean percentage of partitioning was calculated using triplicate samples. Partitioning of the bacteria suspension is calculated using Equation (3).

Substance: E. coli Nissle 1917 [Wild Type]
- OD2 (OD546 of the aqueous phase after dodecane partitioning): 0.14 and 0.17
- OD1 (OD546 of the cell suspension before partitioning): 0.29 and 0.27
- membrane hydrophobicity (conclusion from phase partitioning): hydrophilic
- Average Partitioning (mean of triplicate samples): 45.636%
- Percentage of Partitioning (single samples of triplicate): 51.724% and 37.037% and 48.148%
